The source of these data is ChEMBL document CHEMBL3044994, “Synthesis and evaluation of novel carbamate-substituted flavanone derivatives as potent acetylcholinesterase inhibitors and anti-amnestic agents” (Med Chem Res, 2013).

One test addresses T1, Acetylcholinesterase (Rattus norvegicus, UniProt P37136).
T1 sequence (P37136 whole entry): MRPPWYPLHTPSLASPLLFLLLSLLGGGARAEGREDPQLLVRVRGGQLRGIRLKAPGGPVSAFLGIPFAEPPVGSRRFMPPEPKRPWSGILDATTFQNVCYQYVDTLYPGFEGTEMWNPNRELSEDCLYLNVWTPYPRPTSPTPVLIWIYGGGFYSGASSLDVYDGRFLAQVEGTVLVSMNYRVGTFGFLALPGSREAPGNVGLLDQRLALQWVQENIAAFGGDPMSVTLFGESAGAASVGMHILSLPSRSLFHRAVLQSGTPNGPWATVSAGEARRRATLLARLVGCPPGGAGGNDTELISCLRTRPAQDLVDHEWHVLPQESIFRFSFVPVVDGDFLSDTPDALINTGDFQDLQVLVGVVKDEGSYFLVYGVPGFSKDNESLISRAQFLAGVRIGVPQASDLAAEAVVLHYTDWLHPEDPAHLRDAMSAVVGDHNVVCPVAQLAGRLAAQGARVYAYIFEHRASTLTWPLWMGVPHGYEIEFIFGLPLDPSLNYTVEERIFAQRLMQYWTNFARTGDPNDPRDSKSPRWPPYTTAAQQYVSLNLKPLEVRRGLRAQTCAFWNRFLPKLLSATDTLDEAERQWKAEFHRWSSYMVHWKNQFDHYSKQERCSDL
The test can be described thus: Inhibition of AchE in Rattus norvegicus (rat) cortex homogenates by Ellman's method.

The test system of test [1] is Mus musculus. The test is described as follows: Antiamnestic activity in scopolamine-induced Swiss albino Mus musculus (mouse) memory deficit model assessed as increase in time spent in target quadrant at 25 mg/kg, ip administered 30 min prior to scopolamine challenge measured on day 5 by Morris water maze test relative to vehicle-treated control. Further details: dose 25 mg/kg. The class given is functional, organism-based.

Test [2] has as its system Mus musculus. The test can be described thus: Antiamnestic activity in scopolamine-induced Swiss albino Mus musculus (mouse) memory deficit model assessed as escape latency time at 5 mg/kg, ip administered 30 min prior to scopolamine challenge measured on day 1 by Morris water maze test (reference value: 89.7 +/- 3.8 secs). It is filed as functional. Conditions: route intraperitoneal.

Test [3] has as its system Mus musculus. The test is described as follows: Antiamnestic activity in scopolamine-induced Swiss albino Mus musculus (mouse) memory deficit model assessed as escape latency time at 5 mg/kg, ip administered 30 min prior to scopolamine challenge measured on day 4 by Morris water maze test (reference value: 78.7 +/- 5.7 secs). The class given is functional. The conditions noted are these: route intraperitoneal.

Test [4] deals with Mus musculus. The test is described as follows: Antiamnestic activity in scopolamine-induced Swiss albino Mus musculus (mouse) memory deficit model assessed as increase in time spent in target quadrant at 2 to 10 mg/kg, ip administered 30 min prior to scopolamine challenge measured on day 5 by Morris water maze test relative to vehicle-treated control. It is filed as functional, organism-based.

Test [5] relates to Mus musculus. The test can be described thus: Antiamnestic activity in scopolamine-induced Swiss albino Mus musculus (mouse) memory deficit model assessed as escape latency time at 10 mg/kg, ip administered 30 min prior to scopolamine challenge measured on day 4 by Morris water maze test (reference value: 78.7 +/- 5.7 secs). Conditions: route intraperitoneal. It is filed as functional.

In test [6] the test system is Mus musculus. The test is described as follows: Antiamnestic activity in scopolamine-induced Swiss albino Mus musculus (mouse) memory deficit model assessed as escape latency time at 2 mg/kg, ip administered 30 min prior to scopolamine challenge measured on day 1 by Morris water maze test (reference value: 89.7 +/- 3.8 secs). The class given is functional. Conditions: route intraperitoneal.

Test [7] concerns Mus musculus. The test can be described thus: Antiamnestic activity in scopolamine-induced Swiss albino Mus musculus (mouse) memory deficit model assessed as escape latency time at 2 mg/kg, ip administered 30 min prior to scopolamine challenge measured on day 4 by Morris water maze test (reference value: 78.7 +/- 5.7 secs). It is filed as functional. Conditions: route intraperitoneal.

Test [8] concerns Mus musculus. The test is described as follows: Antiamnestic activity in scopolamine-induced Swiss albino Mus musculus (mouse) memory deficit model assessed as escape latency time at 10 mg/kg, ip administered 30 min prior to scopolamine challenge measured on day 1 by Morris water maze test (reference value: 89.7 +/- 3.8 secs). It is filed as functional. Conditions: route intraperitoneal.

Active and inactive are the calls of the source. The calls are words filed in the database; no cut-off is given here.

One may read the IC50 as the point on the concentration scale where inhibition reaches its midpoint. High values mean weaker potency, low ones greater potency. Regarding `COc1cc(OC)c2c(c1)OC(c1cc(OC)c(OC(=O)Nc3ccccc3)c([N+](=O)[O-])c1)CC2=O` (stereo unspecified), on Acetylcholinesterase, it took 18.2 nM to reach half-maximal inhibition (IC50).
Same read-out and setting: to `COc1cc(C2CC(=O)c3ccccc3O2)ccc1OC(=O)Nc1ccccc1` (stereo unspecified) belongs 21.9 nM; to `COc1cc(OC)c2c(c1)OC(c1ccc(OC(=O)Nc3ccccc3)c(OC)c1)CC2=O` (stereo unspecified), 12.8 nM.
Take `O=C(Nc1ccccc1)Oc1ccccc1C1CC(=O)c2ccccc2O1` (stereo unspecified): half-maximal inhibition on Acetylcholinesterase (IC50) required 39.9 nM.
In the case of `COc1cc(OC)c2c(c1)OC(c1ccc(O)c(OC)c1)CC2=O` (stereo unspecified), on Acetylcholinesterase, the IC50 was determined as 112 nM.
The same measure, in the same setting: to `O=C(Nc1ccccc1)Oc1ccc(C2CC(=O)c3ccccc3O2)cc1` (stereo unspecified) belongs 36.7 nM.
For `COc1cc2c(cc1OC)C(=O)C(CC1CCN(Cc3ccccc3)CC1)C2` (stereo unspecified), in the test with Mus musculus [1], the result was Active.
In the case of `COc1ccc(C2CC(=O)c3ccccc3O2)cc1OC(=O)Nc1ccccc1` (stereo unspecified), the IC50 against Acetylcholinesterase was 27.6 nM.
On the same count and under the same terms, under `COc1cc(C2CC(=O)c3ccccc3O2)cc([N+](=O)[O-])c1O` (stereo unspecified) stands 144 nM; under `COc1cc(C2CC(=O)c3ccccc3O2)ccc1O` (stereo unspecified), 138 nM; under `COc1cc(OC)c2c(c1)OC(c1ccc(O)cc1)CC2=O` (stereo unspecified), 118 nM.
With `O=C1CC(c2ccccc2O)Oc2ccccc21` (stereo unspecified) [2'-HYDROXY-FLAVANONE], the 50% inhibitory concentration (IC50) at Acetylcholinesterase turned out to be 149 nM.
Still for that read-out and setting: to `COc1cc(OC)c2c(c1)OC(c1ccccc1O)CC2=O` (stereo unspecified) belongs 120 nM.
As for `COc1cc(C2CC(=O)c3ccccc3O2)cc([N+](=O)[O-])c1OC(=O)Nc1ccccc1` (stereo unspecified), the IC50 on Acetylcholinesterase was 30.5 nM.
The same measure, in the same setting: to `COc1cc(C2CC(=O)c3ccccc3O2)cc(OC)c1O` (stereo unspecified) belongs 131 nM; to `COc1cc(OC)c2c(c1)OC(c1cc(OC)c(O)c(OC)c1)CC2=O` (stereo unspecified), 107 nM.
Same read-out and setting: under `COc1cc(OC)c2c(c1)OC(c1cc(OC)c(O)c([N+](=O)[O-])c1)CC2=O` (stereo unspecified) stands 116 nM; under `COc1cc(OC)c2c(c1)OC(c1cccc(OC(=O)Nc3ccccc3)c1)CC2=O` (stereo unspecified), 19.6 nM.
Take `COc1cc(OC)c2c(c1)OC(c1ccc(OC)c(OC(=O)Nc3ccccc3)c1)CC2=O` (stereo unspecified): at Acetylcholinesterase, the IC50 is 16.3 nM.
Turning to `COc1cc(OC)c2c(c1)OC(c1ccc(OC(=O)Nc3ccccc3)cc1)CC2=O` (stereo unspecified), at Acetylcholinesterase, the IC50 was determined as 18.8 nM.
`COc1cc(OO)cc2c1C(=O)CC(c1ccccc1OC(=O)Nc1ccccc1)O2` (stereo unspecified) returned an IC50 against Acetylcholinesterase of 21.5 nM.
The same measure, in the same setting: under `COc1cc(C2CC(=O)c3ccccc3O2)cc(OC)c1OC(=O)Nc1ccccc1` (stereo unspecified) stands 19.3 nM; under `COc1cc(OC)c2c(c1)OC(c1cccc(O)c1)CC2=O` (stereo unspecified), 119 nM; under `O=C1CC(c2ccc(O)cc2)Oc2ccccc21` (stereo unspecified) [4'-HYDROXY-FLAVANONE], 145 nM.
As for `COc1cc(OC)c2c(c1)OC(c1cc(OC)c(OC(=O)Nc3ccccc3)c(OC)c1)CC2=O` (stereo unspecified), the Time in the test on Mus musculus [2] amounted to 87.5 s; in the test with Mus musculus [3], 66.4 s; in the test with Mus musculus [5] it was 45.4 s; in the test on Mus musculus [6], 84.3 s; with Mus musculus [7], 72.1 s; in the test on Mus musculus [8] it was 83.1 s. Also, the outcome with Mus musculus [4] was Active. The same compound showed an IC50 against Acetylcholinesterase of 9.9 nM.
The compound `COc1ccc(C2CC(=O)c3ccccc3O2)cc1O` (stereo unspecified) had an IC50 on Acetylcholinesterase of 140 nM.
The same measure, in the same setting: under `O=C(Nc1ccccc1)Oc1cccc(C2CC(=O)c3ccccc3O2)c1` (stereo unspecified) stands 38.8 nM.
Same read-out and setting: to `O=C1CC(c2cccc(O)c2)Oc2ccccc21` (stereo unspecified) [3'-HYDROXYFLAVANONE] belongs 147 nM; to `COc1cc(OC)c2c(c1)OC(c1ccc(OC)c(O)c1)CC2=O` (stereo unspecified), 114 nM.
